Results: paper PMC7926980, “The Antiproliferative and Apoptotic Effect of a Novel Synthesized S-Triazine Dipeptide Series, and Toxicity Screening in Zebrafish Embryos” (Molecules, 2021)

Key:
zebrafish embryos = assay: Zebrafish embryo imaging (morphology, teratogenicity); format: in vivo; conditions: 1 mM, embryos at 48 hpf, versus untreated embryos
Description: The treated embryos had cardiac edema, craniofacial defects, tail lesions, and a delay in embryonic development. These observations are consistent with the findings in the literature.
A Zeiss Observer D1 inverted microscope using Zeiss ZEN software was used to capture the images of the live zebrafish embryos.
Figure 6 Representative images of the zebrafish embryos 48 hpf (A) control or (B) treated.

MCF-7 cells [1] = assay: MTT cell viability assay, MCF-7; format: cell-based, human; conditions: 72 h treatment
Experimental: The antiproliferative activity of the synthesized compounds was evaluated by the 3-(4,5-dimethylthiazol-2-yl)-2,5-diphenyl tetrazolium bromide (MTT) cell viability assay. Two types of breast cancer cell lines—namely MCF-7, which has estrogen and progesterone receptors, and MDA-MB-231, which is triple negative—were used, in addition to a colon cancer cell line (HCT-116).
The target products 3a–o were evaluated for their antiproliferative activity using the MTT viability assay of the MCF-7, MDA-MB-231 and HCT-116 cell lines (in triplicate) on at least three independent occasions for the determination of the reported mean values.
The three human tumor cell lines MCF-7, MDA-MB-231 and HCT-116 were cultured in Dulbecco’s Modified Eagle’s Medium (DMEM) with 10% fetal bovine serum, 2 mM L-glutamine and 100 µg/mL penicillin/streptomycin. The cells were maintained at 37 °C in 5% CO2 in a humidified incubator. All of the cells were sub-cultured 3 times/week by trypsinization using TrypLE Express (1×).
In order to calculate the relative IC50 values, the antiproliferative effect of compounds 3a–o was tested in three cancer cell lines (MCF-7, MDA-MB-231, HCT-116) and normal epithelial embryonic kidney cells (HEK-293) using the MTT viability assay. The cells were seeded in 96-well plates at a density of 10 × 10^3 cells/mL, in a total volume of 200 µL per well. In total, 0.1% DMSO was used as a vehicle control. […] The culture medium was then removed, and the cells were washed with phosphate-buffered saline (PBS), and 100 µL MTT was added (for a final concentration of 5 mg/mL MTT). The cells were incubated for 4 h in darkness at 37 °C. Next, 200 µL DMSO was added to each well, and the cells were maintained at room temperature in darkness for 20 min. The absorbance was detected with a microplate reader at 570 nm. The results were expressed as a percentage of viability relative to the vehicle control (100%). The dose-response curves were plotted, and the IC50 values were obtained using Prism software (GraphPad Software, Inc., La Jolla, CA, USA). All of the experiments were repeated in three independent experiments.

MCF-7 cells [2] = assay: Annexin V-FITC/PI apoptotic assay by flow cytometry; format: cell-based, human; conditions: 2 µM, 48 h; control 8.3%
Experimental: In order to determine the capacity of compound 3a to induce apoptosis, an Annexin V-FITC/PI dual staining assay was performed on the MCF-7 cells by flow cytometry.
Flow cytometry using Annexin V and propidium iodide (PI) was performed in order to detect apoptotic cell death. MCF-7 cells were seeded at a density of 1 × 10^5 cells/well, treated with the vehicle (0.1% (v/v) EtOH) or compound 3a (2 µM), and incubated for 48 h. The cells were then harvested and washed twice in 1X binding buffer, and incubated in the dark for 30 min on ice in Annexin V-containing binding buffer [1:100]. They were then re-suspended in PI-containing binding buffer [1:1000]. The samples were analyzed immediately using a BD Accuri flow cytometer, and GraphPad Prism software version 5.01 was used to analyze the data. Four populations were identified during the assay: Annexin V-negative and PI-negative (Q4, healthy cells), Annexin V-positive and PI-negative (Q3, early apoptosis), Annexin V-positive and PI-positive (Q2, late apoptosis), and Annexin V-negative and PI-positive (Q1, necrosis).
Figure 5 Compound 3a potently induces apoptosis in breast cancer MCF-7 cells (Annexin V/PI Fluorescence-activated cell sorting (FACS)). (A) Flow cytometry analysis of the effect of compound 3a on MCF-7 cells. […] (B) The quantitative analysis of the apoptosis. […]

MCF-7 cells [3] = assay: Cell cycle analysis by PI staining flow cytometry; format: cell-based, human; conditions: 2 µM, 48 h
Experimental: The mechanism underlying the growth-inhibitory effect of 3a was further examined. The effect of 3a on cell cycle events in MCF-7 cells, after incubation at 2 µM for 48 h, was analyzed by a DNA flow cytometry assay of propidium iodide (PI) staining (Figure 4A). Compound 3a induced a statistically significant arrest of MCF-7 cells in the G2/M stage (36.8%) compared to the untreated cell line (11.5%) (Figure 4B).
The MCF-7 cells were treated with compound 3a (2 µM) and incubated for 48 h. After trypsinization, the cells were collected and centrifuged at 800× g for 15 min. They were then fixed in ice-cold 70% ethanol overnight at −20 °C. The fixed cells were centrifuged at 800× g for 15 min and stained with 50 μg/mL PI, containing 50 μg/mL DNase-free RNase A, at 37 °C for 30 min. The DNA content of the cells (10,000 cells) was analyzed by flow cytometer at 488 nm, using a FACSCalibur flow cytometer (BD Biosciences, San Jose, CA, USA).
Figure 4 (A) Effect of compound 3a on the cell cycle and apoptosis in breast cancer MCF-7 cells. The cells were treated with either a vehicle (0.1% ethanol (v/v)) or 3a (2 µM) for 48 h. The cell cycle analysis was performed on histograms of gated counts per DNA area (FL2-A). (B) Quantitative analysis of 4N (G2/M), 2N (G0G1), >2N (S) and <2N (sub-G1). The DNA content was determined with CellQuest software. […]

COC(=O)CNC(=O)CNc1nc(Nc2ccccc2)nc(N2CCOCC2)n1 [Compound 3a, Methyl (4-morpholino-6-(phenylamino)-1,3,5-triazin-2-yl) glycylglycinate]
embryonic abnormality or morphological difference in zebrafish embryo images (zebrafish embryos): did not indicate any embryonic abnormality or morphological difference
IC50 (MCF-7 cells [1]): 0.82 ± 0.37 µM
IC50 (MCF-7 cells [1]; Homo sapiens, MCF7, 72 h): < 1 µM
Annexin V-positive cells (total apoptotic cells) (MCF-7 cells [2]): 37.4%
cells in the sub-G1 phase (MCF-7 cells [3]; control 3.7%): 17.3%
MCF-7 cells in the G2/M stage (MCF-7 cells [3]; untreated 11.5%): 36.8%
